US12172983B2, “EGFR inhibitors” (Blueprint Medicines Corporation, priority 2019, dated 2024)
pIC50: −log10 of the molar value.

Experiments:
[1] = tested on: phosphorylation of EGFR (Tyr1068) in NCI-H1975 cell line that harbors the EGFR L858R T790M mutations; assay: NCI-H1975 pEGFR AlphaLISA assay; format: cell-based; details: Homo sapiens, NCI-H1975, inhibition of phosphorylation of mutant EGFR in NCI-H1975 cells; 4-5 hours incubation; read-out: Ext pEGFR H1975
Summary of the method: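 Phospho-EGFR Tyr1068 AlphaLISA readout: lysates taken from compound-treated H1975 cells (L858R T790M EGFR) after a 4-5 h exposure at 37 °C. Cells had adhered overnight beforehand. IC50 derived by plotting % pEGFR inhibition against log compound concentration.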

EGFR (L858R T790M C797S) = target: T1, EGFR (L858R T790M C797S) (Homo sapiens, UniProt P00533, C797S/L858R/T790M); assay: Biochemical EGFR inhibition assay (Caliper mobility shift), EGFR LRTMCS mutant; details: inhibitory activity against EGFR LRTMCS mutant; apparent IC50; read-out: Ext Enz LRTMCS
T1 construct: purchased SignalChem E10-122VG
T1 sequence (P00533 25-1210 T790M/C797S/L858R): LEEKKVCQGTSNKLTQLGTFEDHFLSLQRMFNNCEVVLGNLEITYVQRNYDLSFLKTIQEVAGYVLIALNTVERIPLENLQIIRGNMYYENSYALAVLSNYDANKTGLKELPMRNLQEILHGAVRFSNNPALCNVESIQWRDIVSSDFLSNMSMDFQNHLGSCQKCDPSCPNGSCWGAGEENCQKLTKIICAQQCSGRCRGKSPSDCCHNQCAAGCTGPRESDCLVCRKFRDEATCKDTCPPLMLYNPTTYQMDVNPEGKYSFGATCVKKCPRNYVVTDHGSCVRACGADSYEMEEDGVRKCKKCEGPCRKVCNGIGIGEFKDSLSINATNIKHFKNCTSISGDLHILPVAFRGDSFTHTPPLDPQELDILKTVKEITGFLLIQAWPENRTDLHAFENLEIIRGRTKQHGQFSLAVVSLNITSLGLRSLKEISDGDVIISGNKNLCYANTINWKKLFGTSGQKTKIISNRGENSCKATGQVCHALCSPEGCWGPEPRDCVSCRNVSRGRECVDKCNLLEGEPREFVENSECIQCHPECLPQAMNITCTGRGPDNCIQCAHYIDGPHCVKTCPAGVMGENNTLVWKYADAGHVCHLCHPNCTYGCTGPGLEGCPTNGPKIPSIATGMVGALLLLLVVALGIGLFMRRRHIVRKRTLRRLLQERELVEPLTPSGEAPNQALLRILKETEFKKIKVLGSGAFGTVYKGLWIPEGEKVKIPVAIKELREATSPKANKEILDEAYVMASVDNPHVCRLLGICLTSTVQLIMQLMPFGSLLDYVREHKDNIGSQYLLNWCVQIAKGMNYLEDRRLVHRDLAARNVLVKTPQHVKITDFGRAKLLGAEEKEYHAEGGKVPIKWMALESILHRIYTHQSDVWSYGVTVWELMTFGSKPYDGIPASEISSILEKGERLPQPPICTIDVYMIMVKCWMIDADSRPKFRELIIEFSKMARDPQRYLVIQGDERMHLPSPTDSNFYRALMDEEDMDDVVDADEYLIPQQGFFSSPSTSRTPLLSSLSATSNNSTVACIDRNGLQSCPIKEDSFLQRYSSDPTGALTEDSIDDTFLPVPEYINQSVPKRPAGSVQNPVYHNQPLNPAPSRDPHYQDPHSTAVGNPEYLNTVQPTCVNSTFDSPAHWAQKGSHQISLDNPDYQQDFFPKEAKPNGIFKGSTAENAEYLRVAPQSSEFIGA
Summary of the method: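 Caliper mobility shift read-out: product and substrate peptides separated by electrophoresis and quantified. Reactions at 25° C. taken to 10–20% peptide phosphorylation, quenched with 35 mM EDTA. Apparent IC50 from percent activity vs log [compound].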

Row | pIC50 [1] | pIC50 (EGFR (L858R T790M C797S)) | SMILES
1 | ≥ 8.00 | ≥ 7.82 | CCS(=O)(=O)C[C@H]1CN(c2ccc(C(C)C)c3cc(Nc4ccnc(N5CC[C@@H](OCCO)[C@@H](F)C5)n4)ncc23)[C@@H]1C [Compound 244, 2-((3S,4R)-1-(4-(8-((2R,3S)-3-(ethylsulfonylmethyl)-2-methylazetidin-1-yl)-5-isopropylisoquinolin-3-ylamino)pyrimidin-2-yl)-3-fluoropiperidin-4-yloxy)ethanol]
2 | ≥ 8.00 | ≥ 7.82 | CC(C)c1ccc(N2C[C@H](CS(C)(=O)=O)[C@H]2C)c2cnc(Nc3ccnc(N4CC[C@@H](OCCN(C)C)[C@@H](F)C4)n3)cc12 [Compound 254, N-{2-[(3S,4R)-4-[2-(dimethylamino)ethoxy]-3-fluoropiperidin-1-yl]pyrimidin-4-yl}-8-[(2R,3S)-3-(methanesulfonylmethyl)-2-methylazetidin-1-yl]-5-(propan-2-yl)isoquinolin-3-amine]
3 | ≥ 8.00 | 7.52 to 7.70 | CC(C)c1ccc(N2C[C@H](CS(C)(=O)=O)[C@H]2C)c2cnc(Nc3ccnc(N4CC[C@H](OCC(C)(C)O)[C@H](F)C4)n3)cc12 [Compound 255, 1-{[(3R,4S)-3-fluoro-1-[4-({8-[(2R,3S)-3-(methanesulfonylmethyl)-2-methylazetidin-1-yl]-5-(propan-2-yl)isoquinolin-3-yl}amino)pyrimidin-2-yl]piperidin-4-yl]oxy}-2-methylpropan-2-ol]
4 | 7.70 to 8.00 | 7.70 to 7.82 | CC(C)c1ncc(N2C[C@H](CS(C)(=O)=O)[C@H]2C)c2cnc(Nc3ccnc(N4CC[C@H](OCC(C)(C)O)[C@H](F)C4)n3)cc12 [Compound 257, 1-{[(3R,4S)-3-fluoro-1-[4-({8-[(2R,3S)-3-(methanesulfonylmethyl)-2-methylazetidin-1-yl]-5-(propan-2-yl)-2,6-naphthyridin-3-yl}amino)pyrimidin-2-yl]piperidin-4-yl]oxy}-2-methylpropan-2-ol]
5 | ≥ 8.00 | ≥ 7.82 | CC(C)c1ncc(N2C[C@H](CS(C)(=O)=O)[C@H]2C)c2cnc(Nc3ccnc(N4CC[C@@H](OCC(C)(C)O)[C@@H](F)C4)n3)cc12 [Compound 258, 1-{[(3S,4R)-3-fluoro-1-[4-({8-[(2R,3S)-3-(methanesulfonylmethyl)-2-methylazetidin-1-yl]-5-(propan-2-yl)-2,6-naphthyridin-3-yl}amino)pyrimidin-2-yl]piperidin-4-yl]oxy}-2-methylpropan-2-ol]
6 | ≥ 8.00 | ≥ 7.82 | CC(C)c1cnc(N2C[C@H](CS(C)(=O)=O)[C@H]2C)c2cnc(Nc3ccnc(N4CC[C@@H](OCC(C)(C)O)[C@@H](F)C4)n3)cc12 [Compound 260, 1-{[(3S,4R)-3-fluoro-1-[4-({8-[(2R,3S)-3-(methanesulfonylmethyl)-2-methylazetidin-1-yl]-5-(propan-2-yl)-2,7-naphthyridin-3-yl}amino)pyrimidin-2-yl]piperidin-4-yl]oxy}-2-methylpropan-2-ol]
7 | ≥ 8.00 | ≥ 7.82 | CCS(=O)(=O)CC1CN(c2ccc(C(C)C)c3cc(Nc4ccnc(N5CC[C@H](OC)[C@H](F)C5)n4)ncc23)C1 [Compound 262, 8-{3-[(ethanesulfonyl)methyl]azetidin-1-yl}-N-{2-[(3R,4S)-3-fluoro-4-methoxypiperidin-1-yl]pyrimidin-4-yl}-5-(propan-2-yl)isoquinolin-3-amine]
8 | ≥ 8.00 | ≥ 7.82 | [2H]C([2H])([2H])O[C@@H]1CCN(c2nccc(Nc3cc4c(C(C)C)cnc(N5CC(CS(C)(=O)=O)C5)c4cn3)n2)C[C@@H]1F [Compound 264, N-{2-[(3S,4R)-3-fluoro-4-(^2H3)methoxypiperidin-1-yl]pyrimidin-4-yl}-8-[3-(methanesulfonylmethyl)azetidin-1-yl]-5-(propan-2-yl)-2,7-naphthyridin-3-amine]
9 | ≥ 8.00 | ≥ 7.82 | CCS(=O)(=O)CC1CN(c2ccc(C(C)C)c3cc(Nc4ccnc(N5CC[C@@](C)(O)[C@@H](F)C5)n4)ncc23)C1 [Compound 276, (3S,4R)-1-{4-[(8-{3-[(ethanesulfonyl)methyl]azetidin-1-yl}-5-(propan-2-yl)isoquinolin-3-yl)amino]pyrimidin-2-yl}-3-fluoro-4-methylpiperidin-4-ol]

The next lines start with the molecule.

Row | SMILES | pIC50 [1] | pIC50 (EGFR (L858R T790M C797S))
10 | CCS(=O)(=O)C[C@H]1CN(c2ncc(C(C)C)c3cc(Nc4ccnc(N5CC[C@@H](OCCO)[C@@H](F)C5)n4)ncc23)[C@@H]1C [Compound 249, 2-{[(3S,4R)-1-[4-({8-[(2R,3S)-3-[(ethanesulfonyl)methyl]-2-methylazetidin-1-yl]-5-(propan-2-yl)-2,7-naphthyridin-3-yl}amino)pyrimidin-2-yl]-3-fluoropiperidin-4-yl]oxy}ethan-1-ol] | ≥ 8.00 | ≥ 7.82
11 | CCS(=O)(=O)C[C@H]1CN(c2ncc(C(C)C)c3cc(Nc4ccnc(N5CC[C@H](OCCO)[C@H](F)C5)n4)ncc23)[C@@H]1C [Compound 250, 2-{[(3R,4S)-1-[4-({8-[(2R,3S)-3-[(ethanesulfonyl)methyl]-2-methylazetidin-1-yl]-5-(propan-2-yl)-2,7-naphthyridin-3-yl}amino)pyrimidin-2-yl]-3-fluoropiperidin-4-yl]oxy}ethan-1-ol] | ≥ 8.00 | ≥ 7.82
12 | CC(C)c1ccc(N2C[C@H](CS(C)(=O)=O)[C@H]2C)c2cnc(Nc3ccnc(N4CC[C@H](OCCN(C)C)[C@H](F)C4)n3)cc12 [Compound 253, N-{2-[(3R,4S)-4-[2-(dimethylamino)ethoxy]-3-fluoropiperidin-1-yl]pyrimidin-4-yl}-8-[(2R,3S)-3-(methanesulfonylmethyl)-2-methylazetidin-1-yl]-5-(propan-2-yl)isoquinolin-3-amine] | ≥ 8.00 | ≥ 7.82
13 | CC(C)c1ccc(N2C[C@H](CS(C)(=O)=O)[C@H]2C)c2cnc(Nc3ccnc(N4CC[C@@H](OCC(C)(C)O)[C@@H](F)C4)n3)cc12 [Compound 256, 1-{[(3S,4R)-3-fluoro-1-[4-({8-[(2R,3S)-3-(methanesulfonylmethyl)-2-methylazetidin-1-yl]-5-(propan-2-yl)isoquinolin-3-yl}amino)pyrimidin-2-yl]piperidin-4-yl]oxy}-2-methylpropan-2-ol] | ≥ 8.00 | 7.52 to 7.70
14 | CC(C)c1cnc(N2C[C@H](CS(C)(=O)=O)[C@H]2C)c2cnc(Nc3ccnc(N4CC[C@H](OCC(C)(C)O)[C@H](F)C4)n3)cc12 [Compound 259, 1-{[(3R,4S)-3-fluoro-1-[4-({8-[(2R,3S)-3-(methanesulfonylmethyl)-2-methylazetidin-1-yl]-5-(propan-2-yl)-2,7-naphthyridin-3-yl}amino)pyrimidin-2-yl]piperidin-4-yl]oxy}-2-methylpropan-2-ol] | ≥ 8.00 | ≥ 7.82
15 | CCS(=O)(=O)CC1CN(c2ccc(C(C)C)c3cc(Nc4ccnc(N5CC[C@@H](OC)[C@@H](F)C5)n4)ncc23)C1 [Compound 261, 8-{3-[(ethanesulfonyl)methyl]azetidin-1-yl}-N-{2-[(3S,4R)-3-fluoro-4-methoxypiperidin-1-yl]pyrimidin-4-yl}-5-(propan-2-yl)isoquinolin-3-amine] | ≥ 8.00 | ≥ 7.82
16 | [2H]C([2H])([2H])OC1CCN(c2nccc(Nc3cc4c(C(C)C)ccc(N5C[C@H](CS(C)(=O)=O)[C@H]5C)c4cn3)n2)CC1 [Compound 263, 8-[(2R,3S)-3-(methanesulfonylmethyl)-2-methylazetidin-1-yl]-N-{2-[4-(^2H3)methoxypiperidin-1-yl]pyrimidin-4-yl}-5-(propan-2-yl)isoquinolin-3-amine] | 7.70 to 8.00 | 7.70 to 7.82
